Assay results as given in patent US8119624B2, “Fused phenyl amido heterocyclic compounds” (Pfizer Inc., priority 2006, dated 2012).
Where two headings read alike, the source gives them in different places.

Target: T1, Full-length glucokinase (beta cell isoform) (Homo sapiens, UniProt P35557)
T1 construct: Full-length glucokinase (beta cell isoform) was His-tagged at N-terminus; His tag (N); made in house
T1 sequence (P35557 1-465): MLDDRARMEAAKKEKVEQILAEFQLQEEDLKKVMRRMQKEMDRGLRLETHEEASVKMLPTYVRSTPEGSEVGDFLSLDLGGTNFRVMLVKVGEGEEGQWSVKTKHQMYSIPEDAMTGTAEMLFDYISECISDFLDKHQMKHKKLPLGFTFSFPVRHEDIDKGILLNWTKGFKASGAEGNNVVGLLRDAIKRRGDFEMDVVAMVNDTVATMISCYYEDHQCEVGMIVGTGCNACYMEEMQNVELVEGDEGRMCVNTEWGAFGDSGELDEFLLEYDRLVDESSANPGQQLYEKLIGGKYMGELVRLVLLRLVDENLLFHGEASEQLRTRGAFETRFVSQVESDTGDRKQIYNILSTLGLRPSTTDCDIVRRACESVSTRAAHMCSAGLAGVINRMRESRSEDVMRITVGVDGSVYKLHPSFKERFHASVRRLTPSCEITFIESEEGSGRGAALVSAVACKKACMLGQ
Assay: Glucokinase biochemical assay (PK/LDH-coupled, NADH depletion at 340 nm): % activation, EC50, % max activation
Details: 5 mM glucose; for activation at 10 µM: read-out: % Activation at 10 uM; for EC50: read-out: EC50; for Emax: read-out: % Max Activation
In short: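 Activation expressed as (Va/Vo−1)×100, where initial rates with and without compound come from NADH depletion at 340 nm over 200–900 s. Enzyme is His-tagged human beta-cell GK, full length, run at room temperature in HEPES buffer with 1 mM ATP and 5 mM glucose. DMSO 1%.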

[1] = 10 uM compound, % Activation=(Va/Vo−1)×100
[2] = compound at 10 uM, 1 mM ATP, room temperature
[3] = fitted maximum activation, 1 mM ATP

activation at 10 µM [1] [%]	EC50 (GK activation) [nM]	Emax (fitted maximum activation) [%]	% Activation at 10 uM [1] [%]	% Max Activation (fitted maximum activation) [%]	EC50 (1 mM ATP, room temperature) [nM]	activation at 10 µM [2] [%]	Emax [3] [%]	SMILES
170	230	158	–	–	–	–	–	Cn1ccc(NC(=O)c2cc(Oc3ccc(C(=O)N4CC[C@H](F)C4)c(F)c3)c3c(c2)OC(C)(C)C3)n1 [Example 63, 4-[3-Fluoro-4-((S)-3-fluoro-pyrrolidine-1-carbonyl)-phenoxy]-2,2-dimethyl-2,3-dihydro-benzofuran-6-carboxylic acid(1-methyl-1H-pyrazol-3-yl)-amide]
141	430	169	–	–	–	–	–	Cn1ccc(NC(=O)c2cc(Oc3ccc(S(C)(=O)=O)cc3)c3c(c2)OC(C)(CF)C3)n1 (stereo not shown) [Example 251, 2-Fluoromethyl-4-(4-methanesulfonyl-phenoxy)-2-methyl-2,3-dihydro-benzofuran-6-carboxylic acid (1-methyl-1H-pyrazol-3-yl)-amide]
6.4	> 10000	–	–	–	–	–	–	Cc1cc2c(Oc3ccc(S(C)(=O)=O)cc3)cc(C(=O)Nc3cccc(CO)n3)cc2o1 [Example 268, N-(6-(Hydroxymethyl)pyridin-2-yl)-2-methyl-4-(4-(methylsulfonyl)phenoxy)-benzofuran-6-carboxamide]
243	150	260	–	–	–	–	–	Cn1ncc(NC(=O)c2cc(Oc3ccc(C(=O)N4CCC4)c(F)c3)c3c(c2)OC(C)(C)C3)n1 [Example 159, 4-[4-(Azetidine-1-carbonyl)-3-fluoro-phenoxy]-2,2-dimethyl-2,3-dihydro-benzofuran-6-carboxylic acid (2-methyl-2H-[1,2,3]triazol-4-yl)-amide]
222	160	261	–	–	–	–	–	Cn1ncc(NC(=O)c2cc(Oc3ccc(S(=O)(=O)C4CC4)cc3)c3c(c2)OC(C)(CO)C3)n1 (stereo not shown) [Example 246, 4-(4-Cyclopropanesulfonyl-phenoxy)-2-hydroxymethyl-2-methyl-2,3-dihydro-benzofuran-6-carboxylic acid (2-methyl-2H-[1,2,3]triazol-4-yl)-amide]
198	90	147	–	–	–	–	–	CN(C)C(=O)c1ncc(Oc2cc(C(=O)Nc3ccn(C)n3)cc3c2CC(C)(C)O3)cc1F [Example 178, 5-[2,2-Dimethyl-6-(1-methyl-1H-pyrazol-3-ylcarbamoyl)-2,3-dihydro-benzofuran-4-yloxy]-3-fluoro-pyridine-2-carboxylic acid dimethylamide]
184	100	159	–	–	–	–	–	CN(C)S(=O)(=O)c1ccc(Oc2cc(C(=O)Nc3ccn(C)n3)cc3c2CC(C)(C)O3)cc1 [Example 122, 4-(4-Dimethylsulfamoyl-phenoxy)-2,2-dimethyl-2,3-dihydro-benzofuran-6-carboxylic acid (1-methyl-1H-pyrazol-3-yl)-amide]
36.3	4000	54	–	–	–	–	–	Cc1cc(NC(=O)c2cc(Oc3ccc(C(=O)N(C)C)cc3)c3c(c2)OC(C)(C)C3)no1 [Example 154, 4-(4-Dimethylcarbamoyl-phenoxy)-2,2-dimethyl-2,3-dihydro-benzofuran-6-carboxylic acid (5-methyl-isoxazol-3-yl)-amide]
123	2000	158	–	–	–	–	–	CC1(C)Cc2c(Oc3ccc(S(C)(=O)=O)cc3)cc(C(=O)Nc3nnc(C4CC4)s3)cc2O1 [Example 28, 4-(4-Methanesulfonyl-phenoxy)-2,2-dimethyl-2,3-dihydro-benzofuran-6-carboxylic acid(5-cyclopropyl-[1,3,4]thiadiazol-2-yl)-amide]
–	2600	–	111	144	–	–	–	COCC1Cc2c(Oc3ccc(C(=O)N(C)C)cc3)cc(C(=O)Nc3ccn(C)n3)cc2O1 (single isomer, unassigned; (+)) [Example 212, (+)-4-(4-Dimethylcarbamoyl-phenoxy)-2-methoxymethyl-2,3-dihydro-benzofuran-6-carboxylic acid (1-methyl-1H-pyrazol-3-yl)-amide]
–	–	–	–	–	9300	82	156	CC(C)CN1Cc2c(Oc3ccc(S(C)(=O)=O)cc3)cc(C(=O)Nc3ccn(C)n3)cc2C1=O [Example 382, 2-Isobutyl-N-(1-methyl-1H-pyrazol-3-yl)-7-(4-(methylsulfonyl)-phenoxy)-3-oxoisoindoline-5-carboxamide]
284	250	255	–	–	–	–	–	CCn1ncc(NC(=O)c2cc(Oc3ccc(S(C)(=O)=O)cc3)c3c(c2)OC(C)(C)C3)n1 [Example 29, 4-(4-Methanesulfonyl-phenoxy)-2,2-dimethyl-2,3-dihydro-benzofuran-6-carboxylic acid(2-ethyl-2H-[1,2,3]triazol-4-yl)-amide]
–	–	–	–	–	56	128	114	Cn1ccc(NC(=O)c2cc(Oc3ccc(C(=O)N4CCCC4)nc3)c3c(c2)OC(C)(C)C3)n1 [Example 398, 2,2-Dimethyl-4-[6-(pyrrolidine-1-carbonyl)-pyridin-3-yloxy]-2,3-dihydro-benzofuran-6-carboxylic acid(1-methyl-1H-pyrazol-3-yl)-amide]
203	470	206	–	–	–	–	–	Cn1ccc(NC(=O)c2cc(Oc3ccc(C(=O)NCC(F)F)c(F)c3)c3c(c2)OC(C)(C)C3)n1 [Example 76, 4-[4-(2,2-Difluoro-ethylcarbamoyl)-3-fluoro-phenoxy]-2,2-dimethyl-2,3-dihydro-benzofuran-6-carboxylic acid(1-methyl-1H-pyrazol-3-yl)-amide]
–	–	–	–	–	> 10000	45.2	–	Cc1ccc(NC(=O)c2cc(Oc3ccc(S(C)(=O)=O)cc3)c3c(c2)C(=O)N(CC(C)C)CC3)nc1 [Example 391, 2-Isobutyl-N-(5-methylpyridin-2-yl)-5-(4-(methylsulfonyl)-phenoxy)-1-oxo-1,2,3,4-tetrahydroisoquinoline-7-carboxamide]
114	520	110	–	–	–	–	–	Cc1ccc(NC(=O)c2cc(Oc3ccc(S(C)(=O)=O)cc3)c3ccsc3c2)nc1 [Example 355, 4-(4-Methanesulfonyl-phenoxy)-benzo[b]thiophene-6-carboxylic acid(5-methyl-pyridin-2-yl)-amide]
112	640	137	–	–	–	–	–	Cn1ccc(NC(=O)c2cc(Oc3ccc(C(=O)N4CCC4)cc3)c3c(c2)OC(C(F)F)C3)n1 (stereo not shown) [Example 226, 4-[4-(Azetidine-1-carbonyl)-phenoxy]-2-difluoromethyl-2,3-dihydro-benzofuran-6-carboxylic acid (1-methyl-1H-pyrazol-3-yl)-amide]
83.5	1300	90	–	–	–	–	–	COCC1Cc2c(Oc3ccc(C(=O)N(C)C)cc3)cc(C(=O)Nc3ccn(C)n3)cc2O1 (stereo not shown) [Example 211, 4-(4-Dimethylcarbamoyl-phenoxy)-2-methoxymethyl-2,3-dihydro-benzofuran-6-carboxylic acid (1-methyl-1H-pyrazol-3-yl)-amide]
98.2	7100	139	–	–	–	–	–	CCOc1ccc(NC(=O)c2cc(Oc3ccc(S(C)(=O)=O)cc3)c3cc(C)oc3c2)nc1 [Example 270, N-(5-ethoxypyridin-2-yl)-2-methyl-4-(4-(methylsulfonyl)-phenoxy)benzofuran-6-carboxamide]
168	150	161	–	–	–	–	–	CN(C)C(=O)c1ccc(Oc2cc(C(=O)Nc3cnn(C)n3)cc3c2CC(C)(C)O3)cc1 [Example 153, 4-(4-Dimethylcarbamoyl-phenoxy)-2,2-dimethyl-2,3-dihydro-benzofuran-6-carboxylic acid (2-methyl-2H-[1,2,3]triazol-4-yl)-amide]
78	3700	83	–	–	–	–	–	Cc1ccc(NC(=O)c2cc(Oc3ccc(C(F)F)cc3)c3cc(C(=O)N(C)C)oc3c2)nc1 [Example 323, 4-[4-(Difluoromethyl)phenoxy]-N^2,N^2-dimethyl-N^6-(5-methylpyridin-2-yl)-1-benzofuran-2,6-dicarboxamide]
–	86	262	276	–	–	–	–	COCC1(C)Cc2c(Oc3ccc(S(=O)(=O)C4CC4)cc3)cc(C(=O)Nc3cnn(C)n3)cc2O1 (single isomer, unassigned; (+)) [Example 249, (+)-4-(4-Cyclopropanesulfonyl-phenoxy)-2-methoxymethyl-2-methyl-2,3-dihydro-benzofuran-6-carboxylic acid (2-methyl-2H-[1,2,3]triazol-4-yl)-amide]
145	1700	165	–	–	–	–	–	Cc1cc2c(Oc3ccc(S(C)(=O)=O)cc3)cc(C(=O)Nc3cnn(C)n3)cc2o1 [Example 267, 2-Methyl-N-(2-methyl-2H-1,2,3-triazol-4-yl)-4-(4-(methylsulfonyl)phenoxy)-benzofuran-6-carboxamide]
